According to US11911353B2, “Fatty acid synthase inhibitor and application thereof” (Jiangnan University, priority 2019, dated 2024):

Legend:
[1] = system: colon cancer cells HCT116; test: Fatty acid content and composition by GC/MS, HCT116 (FIG. 5); assay type: cell-based; settings: HCT116, 20 μM, 24 hours
From the text: […]

[2] = system: colon cancer cells HCT116; test: MTT tumor proliferation IC50, HCT116; assay type: cell-based; settings: Homo sapiens, HCT-116, 72 hours of incubation
From the text: (§1) IC50 (half maximal inhibitory concentration) refers to the half inhibitory concentration of a measured antagonist. It can indicate that a certain concentration of a certain drug or substance (inhibitor) induces tumor cell apoptosis by 50%, and this concentration is referred to as 50% inhibitory concentration, namely, the corresponding concentration when the ratio of apoptotic cells to the total number of cells is equal to 50%. The IC50 value can be used to measure the ability of a drug to induce apoptosis, that is, the higher the inducing ability, the lower the value, which also can indicate the tolerance degree of a certain cell to a drug on the contrary. • (1) Cells in the logarithmic phase are collected, the concentration of a cell suspension is adjusted, it is appropriate to place 100 μl cells in each well of a 96-well plate, the cells are inoculated into the plate to adjust the density of to-be-detected cells to be 1000-10000 cells/well, and edge wells are filled with sterile PBS. • (2) The cells are incubated under 5% CO2 at 37° C., an original culture medium is discarded after complete cell adherence, 200 μl of 1 wt % FBS culture medium containing 0.01 μM, 0.1 μM, 1 μM, 5 μM and 10 μM compound I-1 or cerulenin is added into each well, and there are 6 wells run in duplicate. An equal volume of DMSO is added as a negative control. • (3) After 72 hours of incubation, the cells are photographed for state recording, an original culture medium is discarded, and 100 μl of serum-free culture medium containing 0.5 mg/ml MTT (3-(4,5-dimethylthiazole-2)-2,5-diphenyltetrazolium bromide, trade name thiazolyl blue) is added into each well. • (4) After 2-4 hours of incubation, an original culture medium is discarded, and 150 μl of dimethyl sulfoxide (DMSO) is added into each well and shaken at 300 rpm for 10 minutes to fully dissolve purple crystals. • (5) The absorbance of each well at OD570 nm is measured by an enzyme-linked immunodetection instrument, the absorbance at OD630 nm is used as a reference, dual-wavelength measurement is carried out, and survival rate results are calculated according to the following formula: Cell survival rate=(OD570−OD630)/(OD570 negative control−OD630 negative control);
(§2) wherein, OD570: OD570 value of each treatment group; OD630: OD630 value of each treatment group; OD570 control: OD570 value of the negative control group; OD630 control: OD630 value of the negative control group. • (6) The survival rate results are processed with graphpad 6.0 software according to the concentration gradient, the analysis mode is log (inhibitor) vs. Nonlinear regression (curve fit), and the calculated IC50 value is expressed as x+/−SD.
(§3) The FASN enzyme activity measurement method shown in Experimental Example 18 is used to detect the effects of different substances on FASN enzyme activity. The method shown in Experimental Example 19 is used to detect the effects of different substances on the proliferation of tumor cells, cerulenin is used as a control, and the inhibition rates (%) of different substances on FASN enzyme activity and inhibition rates (IC50 nM) on tumor proliferation are calculated.

nematodes = test: Accumulation of lipid droplets in nematodes, oil red staining (FIG. 7); assay type: in vivo; settings: 10 μM, 9 days
Experimental: Nematodes are taken and resuspended in an M9 buffer, 3 ml of nematode suspension is added into each test tube, the compound shown as the formula I is added into an experimental group to make the final concentration reach 10 μM, a group with no addition of the compound shown as the formula I is used as a control, the suspension is subjected to shaking culture on a shaker at 200 rpm/min, oil red staining is carried out after 9 days, the suspension is placed on a glass slide for observing the lipid droplet condition under a microscope.

[3] = system: prostate cancer cells PC-3; test: MTT tumor proliferation IC50, PC-3; assay type: cell-based; settings: 72 hours of incubation
From the text: as §1, §2, §3

preadipocytes OP9 = test: Lipid droplet formation in preadipocytes OP9, oil red O staining (FIG. 6); assay type: cell-based; settings: 20 μM, differentiation with 1 μM rosiglitazone, OD510
Experimental: The effect of the compound shown as the formula I-1 on preadipocytes OP9 is detected: • (1) The cancer cells in the logarithmic growth phase are taken and inoculated into a 6 cm culture dish with the inoculation density of 2*10^6 cells, and incubated under 5% CO2 at 37° C. • (2) After cell adherence, 6 ml of 10% FBS culture medium containing 20 μM of the compound shown as the formula I is added into each dish with the culture medium as a negative control; cerulenin as a positive control; and 1 μM rosiglitazone (RSG) is used for differentiation. • (3) To observe the formation of lipid droplets, cells were incubated with 4% paraformaldehyde solution for 30 min at room temperature, washed with phosphate-buffered saline (PBS), and then stained with 0.5% oil red O in 60% isopropanol. • (4) After washing with distilled water, the stained cells were observed through a microscope, and then oil red O was extracted with isopropanol for quantification. This quantification was performed by measuring the absorbance of isopropanol solutions of oil red O at 510 nm.

O=C(CCCC(=O)Nc1ccc(Br)cc1)N/N=C/c1cc(Br)ccc1O [Compound I-1]
fatty acid content of 16:0 [1]: lower than that of the control group
total fatty acid content [1]: significantly lower than that of the control group
IC50 [2]: 13 nM
accumulation of lipid droplets in nematodes (nematodes): significantly lower than that of the control group
IC50 [3]: 9 nM
number of lipid droplets in cells OP9 (preadipocytes OP9): reduced significantly
